SMILES strings stand for the structures. Structures can show the parent of a compound that is named as a salt.

The first experiment relates to IL-23. Kind of experiment: IL-23-induced IL-22 in rat auricle tissue. In kind it is in vivo. The note with it: 10 mg/kg, q.d., oral, 30 min before intradermal mouse IL-23 into right auricle; IL-22 in auricle tissue by ELISA about 24 hr later; mean of n=6. The protocol:
Recombinant mouse IL-23 (1 μg/20 μL/site) was intradermally administered into the right auricle of 7-8-week-old LEWEIS male rat. As control, phosphate buffered saline (PBS) which is a solvent was administered instead of IL-23. Then, a drug (the compound of Example 103) suspended in 0.5% methyl cellulose (MC) was orally administered 30 min before IL-23 administration, respectively. 0.5% MC was used as vehicle. The auricle tissues of 6 mm diameter were collected about 24 hr after IL-23 administration. Lysis buffer was added thereto, the tissues were crushed using beads, and centrifugalized, and the supernatant was collected. IL-22 in the tissues was measured using ELISA kit (R & D Systems). The result is shown below as a IL-23 inhibitory rate relative to vehicle. (mean of n=6)
In the case of `CC(C)(CO)n1cc(Nc2nccc(N3CC[C@@](C#N)(C4CC4)C3=O)n2)cn1` [Example 103, (3S)-3-cyclopropyl-1-(2-((1-(1-hydroxy-2-methylpropan-2-yl)-1H-pyrazol-4-yl)amino)pyrimidin-4-yl)-2-oxopyrrolidine-3-carbonitrile], the “IL-23 inhibitory rate relative to vehicle” value amounted to 79%.

For the next experiment, the target named is T1, Tyk2 (Homo sapiens, UniProt P29597).
T1 construct: purchased Invitrogen
T1 sequence (P29597 whole entry): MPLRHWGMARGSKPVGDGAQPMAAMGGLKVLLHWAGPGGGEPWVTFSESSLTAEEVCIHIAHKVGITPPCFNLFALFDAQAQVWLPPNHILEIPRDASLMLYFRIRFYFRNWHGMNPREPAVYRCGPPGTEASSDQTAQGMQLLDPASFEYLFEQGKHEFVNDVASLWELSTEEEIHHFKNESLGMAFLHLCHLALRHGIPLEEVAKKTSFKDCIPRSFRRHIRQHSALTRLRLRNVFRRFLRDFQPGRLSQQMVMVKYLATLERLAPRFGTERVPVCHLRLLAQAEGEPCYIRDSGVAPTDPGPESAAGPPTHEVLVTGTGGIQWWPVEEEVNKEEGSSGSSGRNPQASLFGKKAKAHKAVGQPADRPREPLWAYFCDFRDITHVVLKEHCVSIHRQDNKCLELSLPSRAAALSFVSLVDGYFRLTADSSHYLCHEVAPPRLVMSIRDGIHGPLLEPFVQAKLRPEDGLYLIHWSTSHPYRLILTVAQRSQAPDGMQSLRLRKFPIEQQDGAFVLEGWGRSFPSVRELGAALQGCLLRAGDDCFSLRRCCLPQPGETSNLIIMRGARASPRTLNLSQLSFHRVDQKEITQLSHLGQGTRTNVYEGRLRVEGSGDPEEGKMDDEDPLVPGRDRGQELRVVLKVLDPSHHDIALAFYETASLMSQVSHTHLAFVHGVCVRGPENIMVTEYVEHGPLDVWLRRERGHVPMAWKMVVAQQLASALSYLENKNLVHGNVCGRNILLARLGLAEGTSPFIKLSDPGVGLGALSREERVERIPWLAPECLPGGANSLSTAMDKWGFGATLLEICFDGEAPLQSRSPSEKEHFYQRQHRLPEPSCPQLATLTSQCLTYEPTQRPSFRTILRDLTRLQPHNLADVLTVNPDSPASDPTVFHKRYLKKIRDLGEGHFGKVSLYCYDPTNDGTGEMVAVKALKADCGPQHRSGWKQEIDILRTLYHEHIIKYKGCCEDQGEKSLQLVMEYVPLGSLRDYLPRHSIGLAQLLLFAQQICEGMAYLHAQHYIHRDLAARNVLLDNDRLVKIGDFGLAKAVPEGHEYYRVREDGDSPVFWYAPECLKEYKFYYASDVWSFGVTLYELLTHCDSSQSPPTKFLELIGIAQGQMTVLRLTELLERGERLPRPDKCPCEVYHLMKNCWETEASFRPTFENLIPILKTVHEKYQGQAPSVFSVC
Kind of experiment: Tyk2 enzyme inhibition test (LANCE method). In kind it is biochemical. Conditions: compound 1 μM; Tyk2 (Invitrogen), ULight-JAK1 substrate, ATP; well without enzyme = 100% inhibition; read-out: Tyk2 enzyme inhibitory activity (%, 1 μM). As to the method:
Tyk2 enzyme inhibitory activity of test compounds was measured by LANCE method (PerkinElmer). First, a test compound diluted with assay buffer (50 mM HEPES (pH=7.5), […], 1 mM EGTA, 2 mM DTT, 0.01% Tween20, 0.01% BSA) was added to 384-well plate at 2 μL each. Then, a Tyk2 (Invitrogen) solution and a fluorescence-labeled peptide substrate (ULight-JAK1, PerkinElmer) solution diluted with assay buffer at 375 ng/mL and 300 nM, respectively were added at 2 μL each. Then, enzyme reaction was started by adding 2 μL each of ATP solution prepared with assay buffer at 30 μM. After the reaction at room temperature for 1 hr, Detection Buffer (PerkinElmer) prepared to be 20 mM EDTA, 4 nM europium-labeled anti-phosphotyrosine antibody (PerkinElmer) was added at 6 μL each. After standing at room temperature for 1 hr, fluorescence intensity (excitation wavelength 340 nm, fluorescence wavelength 665 nm, delay time 100 microsecond) was measured by a plate reader, Envision (PerkinElmer). The inhibitory activity of each compound was calculated as relative value where fluorescence intensity of a well without enzyme is considered as 100% inhibition.
Take `CCC1(C#N)CCN(c2ccnc(Nc3cnn(C)c3)n2)C1=O` (centres unmarked) [Example 1, 3-ethyl-1-(2-((1-methyl-1H-pyrazol-4-yl)amino)pyrimidin-4-yl)-2-oxopyrrolidine-3-carbonitrile]: the inhibition at 1 µM amounted to 99%.

As for `CC[C@]1(C#N)CCN(c2ccnc(Nc3ccc(N4CCOCC4)cc3)n2)C1=O` [Example 4, (3R)-3-ethyl-1-(2-((4-(morpholin-4-yl)phenyl)amino)pyrimidin-4-yl)-2-oxopyrrolidine-3-carbonitrile], the inhibition at 1 µM is 100%.

Turning to `CC(C)[C@]1(C#N)CCN(c2ccnc(Nc3ccc(N4CCOCC4)cc3)n2)C1=O` [Example 7, (3S)-3-isopropyl-1-(2-((4-(morpholin-4-yl)phenyl)amino)pyrimidin-4-yl)-2-oxopyrrolidine-3-carbonitrile], the inhibition at 1 µM worked out at 100%.

Take `CCC1(CC)CCN(c2ccnc(Nc3cnn(C)c3)n2)C1=O` [Example 10, 3,3-diethyl-1-(2-((1-methyl-1H-pyrazol-4-yl)amino)pyrimidin-4-yl)pyrrolidin-2-one hydrochloride]: the inhibition at 1 µM is 97%.

As for `Cn1cc(Nc2nccc(N3CCCC3=O)n2)cn1` [Example 12, 1-(2-((1-methyl-H-pyrazol-4-yl)amino)pyrimidin-4-yl)pyrrolidin-2-one], the inhibition at 1 µM is 51%.

As for `CCC1(CC)CCN(c2ccnc(Nc3ccccc3)n2)C1=O` [Example 15, 1-(2-anilinopyrimidin-4-yl)-3,3-diethylpyrrolidin-2-one], the inhibition at 1 µM was determined as 89%.

As to `Cn1cc(Nc2ncc(F)c(N3CCC(C)(C)C3=O)n2)cn1` [Example 29, 1-(5-fluoro-2-((1-methyl-1H-pyrazol-4-yl)amino)pyrimidin-4-yl)-3,3-dimethylpyrrolidin-2-one], the inhibition at 1 µM came to 91%.

For the compound `CCC1(CC#N)CCN(c2ccnc(Nc3cnn(C)c3)n2)C1=O` (centres unmarked) [Example 31, (3-ethyl-1-(2-((1-methyl-1H-pyrazol-4-yl)amino)pyrimidin-4-yl)-2-oxopyrrolidin-3-yl)acetonitrile], the inhibition at 1 µM was 98%.

Consider `CCC1(CC)CC(C)N(c2ccnc(Nc3cnn(C)c3)n2)C1=O` (centres unmarked) [Example 33, 3,3-diethyl-5-methyl-1-(2-((1-methyl-1H-pyrazol-4-yl)amino)pyrimidin-4-yl)pyrrolidin-2-one hydrochloride], for which the inhibition at 1 µM stood at 97%.

Regarding `CCC1(C#N)CCN(c2ccnc(NCc3ccc(C#N)cc3)n2)C1=O` (centres unmarked) [Example 61, 1-(2-((4-cyanobenzyl)amino)pyrimidin-4-yl)-3-ethyl-2-oxopyrrolidine-3-carbonitrile], the inhibition at 1 µM is 14%.

Turning to `CCC1(C#N)CCN(c2ccnc(NCc3ccco3)n2)C1=O` (centres unmarked) [Example 72, 3-ethyl-1-(2-((2-furylmethyl)amino)pyrimidin-4-yl)-2-oxopyrrolidine-3carbonitrile], the inhibition at 1 µM was 20%.

Consider `CCC1(C#N)CCN(c2ccnc(NCC3CC3)n2)C1=O` (centres unmarked) [Example 77, 1-(2-((cyclopropylmethyl)amino)pyrimidin-4-yl)-3-ethyl-2-oxopyrrolidine-3-carbonitrile], for which the inhibition at 1 µM worked out at 22%.

Turning to `CC(C)[C@]1(C#N)CCN(c2ccnc(Nc3cnn(CC(N)=O)c3)n2)C1=O` [Example 85, 2-(4-((4-((3S)-3-cyano-3-isopropyl-2-oxopyrrolidin-1-yl)pyrimidin-2-yl)amino)-1H-pyrazol-1-yl)acetamide hydrochloride], the inhibition at 1 µM came to 100%.

`CNC(=O)Cn1cc(Nc2nccc(N3CC[C@@](C#N)(C(C)C)C3=O)n2)cn1` [Example 86, 2-(4-((4-((3S)-3-cyano-3-isopropyl-2-oxopyrrolidin-1-yl)pyrimidin-2-yl)amino)-1H-pyrazol-1-yl)-N-methylacetamide hydrochloride]: the inhibition at 1 µM was 100%.

As to `CC(C)[C@]1(C#N)CCN(c2ccnc(Nc3cnn(CC(=O)N(C)C)c3)n2)C1=O` [Example 87, 2-(4-((4-((3S)-3-cyano-3-isopropyl-2-oxopyrrolidin-1-yl)pyrimidin-2-yl)amino)-1H-pyrazol-1-yl)-N,N-dimethylacetamide hydrochloride], the inhibition at 1 µM was 100%.

In the case of `Cn1cc(Nc2nccc(N3CCCC(C)(C)C3=O)n2)cn1` [Example 101, 3,3-dimethyl-1-(2-((1-methyl-1H-pyrazol-4-yl)amino)pyrimidin-4-yl) piperidin-2-one hydrochloride], the inhibition at 1 µM is 88%.

As for `CC(C)(CO)n1cc(Nc2nccc(N3CC[C@@](C#N)(C4CC4)C3=O)n2)cn1` [Example 103, (3S)-3-cyclopropyl-1-(2-((1-(1-hydroxy-2-methylpropan-2-yl)-1H-pyrazol-4-yl)amino)pyrimidin-4-yl)-2-oxopyrrolidine-3-carbonitrile], the inhibition at 1 µM came out at 100%.

In the case of `CC(C)(C(N)=O)n1cc(Nc2nccc(N3CC[C@@](C#N)(C4CC4)C3=O)n2)cn1` [Example 109, 2-(4-((4-((3S)-3-cyano-3-cyclopropyl-2-oxopyrrolidin-1-yl)pyrimidin-2-yl)amino)-1H-pyrazol-1-yl)-2-methylpropanamide hydrochloride], the inhibition at 1 µM worked out at 99%.

As to `N#C[C@@]1(C2CC2)CCN(c2ccnc(Nc3cnn(C4(CO)CC4)c3)n2)C1=O` [Example 128, (3S)-3-cyclopropyl-1-(2-((1-(1-(hydroxymethyl)cyclopropyl)-1H-pyrazol-4-yl)amino)pyrimidin-4-yl)-2-oxopyrrolidine-3-carbonitrile], the inhibition at 1 µM was found to be 100%.

On to `CNC(=O)Cn1cc(Nc2nccc(N3CC[C@](C#N)(C4CC4)C3=O)n2)cn1` [Example 133, 2-(4-((4-((3R)-3-cyano-3-cyclopropyl-2-oxopyrrolidin-1-yl)pyrimidin-2-yl)amino)-1H-pyrazol-1-yl)-N-methylacetamide hydrochloride], for which the inhibition at 1 µM turned out to be 24%.

For the compound `CNC(=O)Cn1cc(Nc2nccc(N3CC[C@@](C#N)(C4CC4)C3=O)n2)cn1` [Example 134, 2-(4-((4-((3S)-3-cyano-3-cyclopropyl-2-oxopyrrolidin-1-yl)pyrimidin-2-yl)amino)-1H-pyrazol-1-yl)-N-methylacetamide hydrochloride], the inhibition at 1 µM came out at 99%.

On to `CC(C)[C@]1(C#N)CCN(c2ccnc(Nc3cnn(CCC(=O)N(C)C)c3)n2)C1=O` [Example 265, 3-(4-((4-((3S)-3-cyano-3-isopropyl-2-oxopyrrolidin-1-yl)pyrimidin-2-yl)amino)-1H-pyrazol-1-yl)-N,N-dimethylpropanamide], for which the inhibition at 1 µM was found to be 99%.

These data come from US9187453B2, “Heterocyclic compound” (Takeda Pharmaceutical Company Limited, priority 2012, dated 2015).
